The values below come from patent US20260070945A1, “MACROCYCLIC IMMUNOMODULATORS” (Bristol-Myers Squibb Company, priority 2022, published 2026).

pIC50: −log10 of the molar value. Where a SMILES comes first, the peptide text is derived from it. Bridges are numbered along the chain shown (N, C = ends). [ ]: non-standard residue; d: D form. The star is where a group is joined. X15 = NCCCC[C@H](NC(=O)CNCCNCCN*)C(=O)NCCCCCCCCCCC(=O)O; X3 = NCCC[C@H](NC(=O)CNCCNCCN*)C(=O)NCCCCCCCCCCC(=O)O; X4 = NCC[C@H](NC(=O)CNCCNCCN*)C(=O)NCCCCCCCCCCC(=O)O; X7 = NC[C@H](NC(=O)CNCCNCCN*)C(=O)NCCCCCCCCCCC(=O)O; Phe(4-COOH) = N[C@@H](Cc1ccc(C(=O)O)cc1)C(=O)O; Bip = N[C@@H](Cc1ccc(-c2ccccc2)cc1)C(=O)O; Phe(3-Me) = Cc1cccc(C[C@H](N)C(=O)O)c1; Cha = N[C@@H](CC1CCCCC1)C(=O)O; Carboxymethyl = O=C(O)C*; NMeA = CN[C@@H](C)C(=O)O; Orn = NCCC[C@H](N)C(=O)O; Aun = NCCCCCCCCCCC(=O)O; Dab = NCC[C@H](N)C(=O)O; Dap = NC[C@H](N)C(=O)O; AEEA = NCCOCCOCC(=O)O

T1 sequence (Q15116 25-288): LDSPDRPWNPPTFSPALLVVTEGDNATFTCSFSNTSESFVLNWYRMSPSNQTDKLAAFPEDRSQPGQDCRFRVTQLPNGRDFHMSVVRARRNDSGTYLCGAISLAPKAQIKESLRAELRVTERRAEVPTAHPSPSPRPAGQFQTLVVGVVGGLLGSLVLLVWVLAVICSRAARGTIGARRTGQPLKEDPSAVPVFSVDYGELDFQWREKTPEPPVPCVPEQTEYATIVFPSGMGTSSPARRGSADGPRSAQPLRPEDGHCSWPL

The experiment addresses T1, PD-1/PD-L1 interaction (PE-labeled human PD-L1-Ig binding to Jurkat cell line over-expressing human PD-1) (Homo sapiens, UniProt Q15116).
T1 construct: expressed in transfected cells; host or cells: Jurkat
The experiment is described as follows: Jurkat-PD-1 Cell Binding High-Content Screening Assay (CBA). To be noted: Jurkat-hPD-1 cells, PE-labeled PD-L1-Ig 20 nM final; read-out: Jurkat HPD1 PDL1 IC50. An outline of the steps:
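High-content imaging read-out of PE-PD-L1-Ig binding (20 nM final, 1 h) to Jurkat-hPD-1 cells, after 2 h compound exposure at 37 °C in DMEM with 10% FCS. Nuclei counterstained with Hoechst 33342 after paraformaldehyde fixation.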
Broadly, the pIC50 is the IC50 on a negative log10 scale, so that one unit is a factor of ten. Turning to `Cc1cccc(C[C@@H]2NC(=O)[C@H](CC(=O)O)NC(=O)[C@H](Cc3ccc(OCC(=O)O)cc3)NC(=O)[C@H](CN)NC(=O)CSC[C@@H](C(=O)NCC(=O)N[C@@H](CN)C(=O)NCC(=O)NCCCCCCCCCCC(=O)O)NC(=O)[C@H](CO)NC(=O)[C@H](C(C)C)NC(=O)[C@H](CC(C)C)NC(=O)[C@H](CC(N)=O)NC(=O)[C@@H](CC(C)C)NC(=O)[C@H](C)N(C)C(=O)[C@H](C(C)C)NC(=O)[C@H](Cc3ccc(-c4ccccc4)cc3)NC(=O)[C@H](CC(C)C)NC2=O)c1` [Example 1052] ({CH2CO}-[Dap]Y(Carboxymethyl)D[Phe(3-Me)]L[Bip]V[NMeA][dL]NLVSCG[Dap]G[Aun]-OH; thioether N-14), the pIC50 is 7.74.

Consider `Cc1cccc(C[C@@H]2NC(=O)[C@H](CC(=O)O)NC(=O)[C@H](Cc3ccc(OCC(=O)O)cc3)NC(=O)[C@H](CN)NC(=O)CSC[C@@H](C(=O)NCC(=O)N[C@@H](CCC(=O)O)C(=O)NCCCCCCCCCCC(=O)O)NC(=O)[C@H](CO)NC(=O)[C@H](C(C)C)NC(=O)[C@H](CC(C)C)NC(=O)[C@H](CC(N)=O)NC(=O)[C@@H](CC(C)C)NC(=O)[C@H](C)N(C)C(=O)[C@H](C(C)C)NC(=O)[C@H](Cc3ccc(-c4ccccc4)cc3)NC(=O)[C@H](CC(C)C)NC2=O)c1` [Example 1060] ({CH2CO}-[Dap]Y(Carboxymethyl)D[Phe(3-Me)]L[Bip]V[NMeA][dL]NLVSCGE[Aun]-OH; thioether N-14), for which the pIC50 was 7.32.

Take `Cc1cccc(C[C@@H]2NC(=O)[C@H](CC(=O)O)NC(=O)[C@H](Cc3ccc(OCC(=O)O)cc3)NC(=O)[C@H](CN)NC(=O)CSC[C@@H](C(=O)NCC(=O)N[C@@H](CC(=O)O)C(=O)NCCCCCCCCCCC(=O)O)NC(=O)[C@H](CO)NC(=O)[C@H](C(C)C)NC(=O)[C@H](CC(C)C)NC(=O)[C@H](CC(N)=O)NC(=O)[C@@H](CC(C)C)NC(=O)[C@H](C)N(C)C(=O)[C@H](C(C)C)NC(=O)[C@H](Cc3ccc(-c4ccccc4)cc3)NC(=O)[C@H](CC(C)C)NC2=O)c1` [Example 1061] ({CH2CO}-[Dap]Y(Carboxymethyl)D[Phe(3-Me)]L[Bip]V[NMeA][dL]NLVSCGD[Aun]-OH; thioether N-14): the pIC50 was 7.37.

With `Cc1cccc(C[C@@H]2NC(=O)[C@H](CC(=O)O)NC(=O)[C@H](Cc3ccc(OCC(=O)O)cc3)NC(=O)[C@H](CN)NC(=O)CSC[C@@H](C(=O)NCCNCCNCC(=O)N[C@@H](CN)C(=O)NCCCCCCCCCCC(=O)O)NC(=O)[C@H](CO)NC(=O)[C@H](C(C)C)NC(=O)[C@H](CC(C)C)NC(=O)[C@H](CC(N)=O)NC(=O)[C@@H](CC(C)C)NC(=O)[C@H](C)N(C)C(=O)[C@H](C(C)C)NC(=O)[C@H](Cc3ccc(-c4ccccc4)cc3)NC(=O)[C@H](CC(C)C)NC2=O)c1` [Example 1062] ({CH2CO}-[Dap]Y(Carboxymethyl)D[Phe(3-Me)]L[Bip]V[NMeA][dL]NLVSC-X7; thioether N-14), the pIC50 is 7.57.

For the compound `Cc1cccc(C[C@@H]2NC(=O)[C@H](CC(=O)O)NC(=O)[C@H](Cc3ccc(OCC(=O)O)cc3)NC(=O)[C@H](CN)NC(=O)CSC[C@@H](C(=O)NCCNCCNCC(=O)N[C@@H](CCN)C(=O)NCCCCCCCCCCC(=O)O)NC(=O)[C@H](CO)NC(=O)[C@H](C(C)C)NC(=O)[C@H](CC(C)C)NC(=O)[C@H](CC(N)=O)NC(=O)[C@@H](CC(C)C)NC(=O)[C@H](C)N(C)C(=O)[C@H](C(C)C)NC(=O)[C@H](Cc3ccc(-c4ccccc4)cc3)NC(=O)[C@H](CC(C)C)NC2=O)c1` [Example 1063] ({CH2CO}-[Dap]Y(Carboxymethyl)D[Phe(3-Me)]L[Bip]V[NMeA][dL]NLVSC-X4; thioether N-14), the pIC50 was 7.55.

On to `Cc1cccc(C[C@@H]2NC(=O)[C@H](CC(=O)O)NC(=O)[C@H](Cc3ccc(OCC(=O)O)cc3)NC(=O)[C@H](CN)NC(=O)CSC[C@@H](C(=O)NCCNCCNCC(=O)N[C@@H](CCCN)C(=O)NCCCCCCCCCCC(=O)O)NC(=O)[C@H](CO)NC(=O)[C@H](C(C)C)NC(=O)[C@H](CC(C)C)NC(=O)[C@H](CC(N)=O)NC(=O)[C@@H](CC(C)C)NC(=O)[C@H](C)N(C)C(=O)[C@H](C(C)C)NC(=O)[C@H](Cc3ccc(-c4ccccc4)cc3)NC(=O)[C@H](CC(C)C)NC2=O)c1` [Example 1064] ({CH2CO}-[Dap]Y(Carboxymethyl)D[Phe(3-Me)]L[Bip]V[NMeA][dL]NLVSC-X3; thioether N-14), for which the pIC50 was 7.63.

On to `Cc1cccc(C[C@@H]2NC(=O)[C@H](CC(=O)O)NC(=O)[C@H](Cc3ccc(OCC(=O)O)cc3)NC(=O)[C@H](CN)NC(=O)CSC[C@@H](C(=O)NCCNCCNCC(=O)N[C@@H](CCCCN)C(=O)NCCCCCCCCCCC(=O)O)NC(=O)[C@H](CO)NC(=O)[C@H](C(C)C)NC(=O)[C@H](CC(C)C)NC(=O)[C@H](CC(N)=O)NC(=O)[C@@H](CC(C)C)NC(=O)[C@H](C)N(C)C(=O)[C@H](C(C)C)NC(=O)[C@H](Cc3ccc(-c4ccccc4)cc3)NC(=O)[C@H](CC(C)C)NC2=O)c1` [Example 1065] ({CH2CO}-[Dap]Y(Carboxymethyl)D[Phe(3-Me)]L[Bip]V[NMeA][dL]NLVSC-X15; thioether N-14), for which the pIC50 was 7.49.

Turning to `Cc1cccc(C[C@@H]2NC(=O)[C@H](CC(=O)O)NC(=O)[C@H](Cc3ccc(OCC(=O)O)cc3)NC(=O)[C@H](CN)NC(=O)CSC[C@@H](C(=O)N[C@@H](CC(=O)O)C(=O)NCCCCCCCCCCC(=O)O)NC(=O)[C@H](CO)NC(=O)[C@H](C(C)C)NC(=O)[C@H](CC(C)C)NC(=O)[C@H](CC(N)=O)NC(=O)[C@@H](CC(C)C)NC(=O)[C@H](C)N(C)C(=O)[C@H](C(C)C)NC(=O)[C@H](Cc3ccc(-c4ccccc4)cc3)NC(=O)[C@H](CC(C)C)NC2=O)c1` [Example 1067] ({CH2CO}-[Dap]Y(Carboxymethyl)D[Phe(3-Me)]L[Bip]V[NMeA][dL]NLVSCD[Aun]-OH; thioether N-14), the pIC50 was 6.97.

`Cc1cccc(C[C@@H]2NC(=O)[C@H](CC(=O)O)NC(=O)[C@H](Cc3ccc(OCC(=O)O)cc3)NC(=O)[C@H](CN)NC(=O)CSC[C@@H](C(=O)N[C@@H](CCC(=O)O)C(=O)NCCCCCCCCCCC(=O)O)NC(=O)[C@H](CO)NC(=O)[C@H](C(C)C)NC(=O)[C@H](CC(C)C)NC(=O)[C@H](CC(N)=O)NC(=O)[C@@H](CC(C)C)NC(=O)[C@H](C)N(C)C(=O)[C@H](C(C)C)NC(=O)[C@H](Cc3ccc(-c4ccccc4)cc3)NC(=O)[C@H](CC(C)C)NC2=O)c1` [Example 1068] ({CH2CO}-[Dap]Y(Carboxymethyl)D[Phe(3-Me)]L[Bip]V[NMeA][dL]NLVSCE[Aun]-OH; thioether N-14): the pIC50 was 6.77.

As for `CC[C@H](C)[C@@H]1NC(=O)[C@H](Cc2ccc(-c3ccccc3)cc2)NC(=O)[C@H](CC(C)C)NC(=O)[C@H](Cc2c[nH]c3ccccc23)NC(=O)[C@H](CC(=O)O)NC(=O)[C@H](Cc2ccc(C(=O)O)cc2)NC(=O)[C@H](Cc2ccc(OCC(=O)O)cc2)NC(=O)CSC[C@@H](C(=O)NCCOCCOCC(=O)NCCCCCCCCCCC(=O)O)NC(=O)[C@H](CO)NC(=O)[C@H](C(C)C)NC(=O)[C@H](CC2CCCCC2)NC(=O)[C@H](CCN)NC(=O)[C@@H](CC(C)C)NC(=O)[C@H](C)N(C)C1=O` [Example 1069] ({CH2CO}-Y(Carboxymethyl)[Phe(4-COOH)]DWL[Bip]I[NMeA][dL][Dab][Cha]VSC[AEEA][Aun]-OH; thioether N-14), the negative logarithm of the IC50 (pIC50) was 7.39.

For `CC[C@H](C)[C@@H]1NC(=O)[C@H](Cc2ccc(-c3ccccc3)cc2)NC(=O)[C@H](CC(C)C)NC(=O)[C@H](Cc2c[nH]c3ccccc23)NC(=O)[C@H](CC(=O)O)NC(=O)[C@H](Cc2ccc(C(=O)O)cc2)NC(=O)[C@H](Cc2ccc(OCC(=O)O)cc2)NC(=O)CSC[C@@H](C(=O)N[C@@H](CN)C(=O)NCCCCCCCCCCC(=O)O)NC(=O)[C@H](CO)NC(=O)[C@H](C(C)C)NC(=O)[C@H](CC2CCCCC2)NC(=O)[C@H](CCN)NC(=O)[C@@H](CC(C)C)NC(=O)[C@H](C)N(C)C1=O` [Example 1070] ({CH2CO}-Y(Carboxymethyl)[Phe(4-COOH)]DWL[Bip]I[NMeA][dL][Dab][Cha]VSC[Dap][Aun]-OH; thioether N-14), the pIC50 was 7.41.

Turning to `CC[C@H](C)[C@@H]1NC(=O)[C@H](Cc2ccc(-c3ccccc3)cc2)NC(=O)[C@H](CC(C)C)NC(=O)[C@H](Cc2c[nH]c3ccccc23)NC(=O)[C@H](CC(=O)O)NC(=O)[C@H](Cc2ccc(C(=O)O)cc2)NC(=O)[C@H](Cc2ccc(OCC(=O)O)cc2)NC(=O)CSC[C@@H](C(=O)N[C@@H](CCCN)C(=O)NCCCCCCCCCCC(=O)O)NC(=O)[C@H](CO)NC(=O)[C@H](C(C)C)NC(=O)[C@H](CC2CCCCC2)NC(=O)[C@H](CCN)NC(=O)[C@@H](CC(C)C)NC(=O)[C@H](C)N(C)C1=O` [Example 1072] ({CH2CO}-Y(Carboxymethyl)[Phe(4-COOH)]DWL[Bip]I[NMeA][dL][Dab][Cha]VSC[Orn][Aun]-OH; thioether N-14), the pIC50 is 7.74.

With `CC[C@H](C)[C@@H]1NC(=O)[C@H](Cc2ccc(-c3ccccc3)cc2)NC(=O)[C@H](CC(C)C)NC(=O)[C@H](Cc2c[nH]c3ccccc23)NC(=O)[C@H](CC(=O)O)NC(=O)[C@H](Cc2ccc(C(=O)O)cc2)NC(=O)[C@H](Cc2ccc(OCC(=O)O)cc2)NC(=O)CSC[C@@H](C(=O)N[C@@H](CCCNC(=N)N)C(=O)NCCCCCCCCCCC(=O)O)NC(=O)[C@H](CO)NC(=O)[C@H](C(C)C)NC(=O)[C@H](CC2CCCCC2)NC(=O)[C@H](CCN)NC(=O)[C@@H](CC(C)C)NC(=O)[C@H](C)N(C)C1=O` [Example 1074] ({CH2CO}-Y(Carboxymethyl)[Phe(4-COOH)]DWL[Bip]I[NMeA][dL][Dab][Cha]VSCR[Aun]-OH; thioether N-14), the pIC50 is 7.36.
